≈ marks a conversion by molar mass, not a printed value. Like-named read-outs stand apart in the source and are kept apart here. Where no end group is shown, it is not given here.
Tests used:
[1] = system: S. aureus (KCTC 1621); assay type: cell-based, Staphylococcus aureus; details: broth microdilution in MHB, 37 °C, 24 h, 100% inhibition of growth
Experimental: (§1) The antibacterial efficacy of the synthesized peptides was evaluated by determining the minimal inhibitory concentrations (MICs) against six standard bacterial strains and five drug-resistant bacterial strains using the Clinical and Laboratory Standards Institute (CLSI) microdilution method. Melittin served as the positive control.
(§2) The minimal inhibitory concentrations (MICs) of the peptides against bacterial strains were determined using a modified broth-microdilution method in accordance with the National Committee for Clinical Laboratory Standards (NCCLS) guidelines. Overnight cultures were diluted in cation-adjusted Mueller–Hinton Broth (MHB) to achieve an inoculum density of 2 × 10^6 CFU/mL. A two-fold serial dilution of the peptide solution (100 μL) was introduced into microtiter plates, followed by the addition of 100 μL of bacterial suspension. The plates were then incubated at 37 °C for 24 h to determine the MICs. Wells containing only culture media served as negative controls, while those with added bacteria functioned as positive controls. The MIC, expressed in μM, was defined as the lowest peptide concentration that prevented visible bacterial growth. This protocol was also employed to determine MICs in the presence of physiological salts (150 mM of NaCl, 4.5 mM of KCl, 6 μM of NH4Cl, 1 mM of MgCl2, 2.5 mM of CaCl2, and 4 μM of FeCl3) and 20% human serum to assess the peptides’ efficacy under conditions more closely resembling physiological environments. All experiments were conducted in triplicate and repeated three times independently to ensure reproducibility and statistical significance of the results.

[2] = system: S. epidermidis (KCTC 1917); assay type: cell-based, Staphylococcus epidermidis; details: broth microdilution in MHB, 37 °C, 24 h, 100% inhibition of growth
Experimental: as §1, §2

[3] = system: B. subtilis (KCTC 3068); assay type: cell-based, Bacillus subtilis; details: broth microdilution in MHB, 37 °C, 24 h, 100% inhibition of growth
Experimental: as §1, §2

[4] = system: VREF (ATCC 51559); assay type: cell-based, vancomycin-resistant Enterococcus faecium; details: broth microdilution in MHB, 37 °C, 24 h, 100% inhibition of growth
Experimental: as §1, §2

[5] = system: E. coli (KCTC 1682); assay type: cell-based, Escherichia coli; details: broth microdilution in MHB, 37 °C, 24 h, 100% inhibition of growth
Experimental: as §1, §2

[6] = system: sheep red blood cells (sRBCs); test: Hemolytic activity assay; assay type: cell-based; details: 4% (v/v) sheep red blood cells in PBS, 1 h, 37 °C; 1 to 256 μM tested
Experimental: To assess toxicity in mammalian cells, we evaluated the hemolytic activity of the peptides on sheep red blood cells (sRBCs). […] The therapeutic index (TI), a measure commonly employed to evaluate the cell selectivity of antibacterial agents, was calculated as the ratio of the concentration causing 10% hemolysis of sRBCs (HC10) to the GM [19, 20, 21, 22].
The hemolytic activity of the peptides was tested through hemolysis assay of sheep red blood cells (sRBCs). The sRBCs were diluted in PBS to achieve a 4% (v/v) concentration. Subsequently, 100 μL of peptide solutions, ranging from 1 to 256 μM, was dispensed into a 96-well plate containing an equal volume of the erythrocyte suspension. After incubating for 1 h at 37 °C and centrifuging at 1000× g for 10 min, 100 μL of the supernatant was transferred to a new 96-well plate. Hemoglobin release was quantified using a microplate reader at a wavelength of […]. The percentage of hemolysis was calculated using percentage hemolysis = 100 × [[…]], where A represents the absorbance of the peptide-treated sample at 540 nm, A0 corresponds to the absorbance value representing 0% hemolysis in PBS, and At corresponds to the absorbance value representing 100% hemolysis in 0.1% Triton X-100.

[7] = system: S. aureus (KCTC 1621); assay type: cell-based, Staphylococcus aureus
Experimental: To comprehensively evaluate the therapeutic potential of BP100 and the five selected analogs, we assessed their capacity to maintain antibacterial activity in the presence of physiological salts and serum (Table 4). Antibacterial assays were conducted in an environment supplemented with either […] fresh human serum or physiological salts. […] This enhanced stability in physiologically relevant conditions may have important implications for the potential therapeutic applications of these peptide analogs.
as §2

[8] = system: E. coli (KCTC 1682); assay type: cell-based, Escherichia coli; details: 10% Human Serum

Row | Compound | Minimal Inhibitory Concentration (MIC) [1] [µM] | Minimal Inhibitory Concentration (MIC) [2] [µM] | Minimal Inhibitory Concentration (MIC) [3] [µM] | Minimal Inhibitory Concentration (MIC) [4] [µM] | Minimal Inhibitory Concentration (MIC) [5] [µM] | HC10 (peptide concentration that caused 10% hemolysis) [6] [µM] | MIC ([7]; 4 μM of FeCl3) [µM] | MIC ([7]; 6 μM of NH4Cl) [µM] | MIC ([7]; 1 mM of MgCl2) [µM] | MIC ([7]; 2.5 mM of CaCl2) [µM] | MIC ([7]; 4.5 mM of KCl) [µM] | MIC ([7]; 150 mM of NaCl) [µM] | MIC ([7]; Control, absence of salts) [µM] | MIC [8] [µM]
1 | CC[C@H](C)[C@H](NC(=O)[C@H](CCCCN)NC(=O)[C@H](CCCCN)NC(=O)[C@H](Cc1c[nH]c2ccccc12)NC(=O)[C@H](CC(C)C)NC(=O)[C@H](CCCCN)NC(=O)[C@@H](N)CCCCN)C(=O)N[C@@H](CC(C)C)C(=O)N[C@@H](CCCCN)C(=O)N[C@@H](Cc1ccc(O)cc1)C(=O)N[C@@H](CC(C)C)C(N)=O [BP1] | 8 | 8 | 8 | 64 | 8 | >256 |  |  |  |  |  |  |  | 
2 | CC(C)C[C@H](NC(=O)[C@H](Cc1ccc(O)cc1)NC(=O)[C@H](CCCCN)NC(=O)[C@H](CC(C)C)NC(=O)[C@H](Cc1c[nH]c2ccccc12)NC(=O)[C@H](CCCCN)NC(=O)[C@H](CCCCN)NC(=O)[C@H](Cc1ccccc1)NC(=O)[C@H](CC(C)C)NC(=O)[C@H](CCCCN)NC(=O)[C@@H](N)CCCCN)C(N)=O [BP2] | 4 | 2 | 8 | 128 | 2 | >256 |  |  |  |  |  |  |  | 
3 | CC[C@H](C)[C@H](NC(=O)[C@H](CCCCN)NC(=O)[C@H](CCCCN)NC(=O)[C@H](Cc1ccccc1)NC(=O)[C@H](CC(C)C)NC(=O)[C@H](CCCCN)NC(=O)[C@@H](N)CCCCN)C(=O)N[C@@H](Cc1c[nH]c2ccccc12)C(=O)N[C@@H](CCCCN)C(=O)N[C@@H](Cc1ccc(O)cc1)C(=O)N[C@@H](CC(C)C)C(N)=O [BP3] | 8 | 8 | 16 | 64 | 8 | >256 |  |  |  |  |  |  |  | 
4 | CC[C@H](C)[C@H](NC(=O)[C@H](CCCCN)NC(=O)[C@H](CCCCN)NC(=O)[C@H](Cc1ccccc1)NC(=O)[C@H](CC(C)C)NC(=O)[C@H](CCCCN)NC(=O)[C@@H](N)CCCCN)C(=O)N[C@@H](CC(C)C)C(=O)N[C@@H](CCCCN)C(=O)N[C@@H](Cc1c[nH]c2ccccc12)C(=O)N[C@@H](CC(C)C)C(N)=O [BP4] | 4 | 8 | 4 | 16 | 4 | >256 |  |  |  |  |  |  |  | 
5 | CC[C@H](C)[C@H](NC(=O)[C@H](CCCCN)NC(=O)[C@H](CCCCN)NC(=O)[C@H](Cc1ccccc1)NC(=O)[C@H](CC(C)C)NC(=O)[C@H](CCCCN)NC(=O)[C@@H](N)CCCCN)C(=O)N[C@@H](CC(C)C)C(=O)N[C@@H](CCCCN)C(=O)N[C@@H](Cc1ccc(O)cc1)C(=O)N[C@@H](CC(C)C)C(N)=O [BP100] | 4 | 4 | 8 | 64 | 4 | >256 | 16 (≈ 22.7 µg/mL) | 16 (≈ 22.7 µg/mL) | 16 (≈ 22.7 µg/mL) | 16 (≈ 22.7 µg/mL) | 16 (≈ 22.7 µg/mL) | 16 (≈ 22.7 µg/mL) | 4 | 16 (≈ 22.7 µg/mL)
6 | KKLFKKILKWW-NH2 [BP12] | 4 | 4 | 8 | 128 | 8 | >256 |  |  |  |  |  |  |  | 
7 | KKLFKKIWKWL-NH2 [BP11] | 4 | 4 | 8 | 16 | 8 | >256 | 4 | 4 | 4 | 16 | 4 | 8 | 4 | 8
8 | KKLFKKWLKYW-NH2 [BP10] | 8 | 8 | 16 | 128 | 8 | >256 |  |  |  |  |  |  |  | 
9 | KKLFKKWWKWL-NH2 [BP16] | 16 | 16 | 16 | 64 | 16 | >256 |  |  |  |  |  |  |  | 
10 | KKLFKKWWKYL-NH2 [BP9] | 8 | 4 | 16 | 64 | 4 | >256 |  |  |  |  |  |  |  | 
11 | KKLWKKILKWL-NH2 [BP8] | 4 | 2 | 8 | 16 | 2 | >256 | 4 | 4 | 4 | 4 | 4 | 4 | 4 | 4
12 | KKLWKKIWKYL-NH2 [BP7] | 2 | 2 | 4 | 32 | 4 | >256 |  |  |  |  |  |  |  | 
13 | KKLWKKIWKYW-NH2 [BP15] | 2 | 4 | 4 | 64 | 4 | >256 |  |  |  |  |  |  |  | 
14 | KKLWKKWLKYW-NH2 [BP14] | 2 | 2 | 4 | 64 | 4 | >256 |  |  |  |  |  |  |  | 
15 | KKWFKKILKWL-NH2 [BP6] | 2 | 2 | 4 | 8 | 4 | >256 | 8 | 4 | 4 | 4 | 4 | 4 | 2 | 4

Source: publication PMC11596392, “Enhanced Antibacterial, Anti-Inflammatory, and Antibiofilm Activities of Tryptophan-Substituted Peptides Derived from Cecropin A-Melittin Hybrid Peptide BP100” (Molecules, 2024)
